From patent US9139557B2, “Carboxamide compounds and their use as calpain inhibitors” (Abbott GmbH & Co. KG, priority 2006, dated 2015)

Legend:
Format in all cases: biochemical
[1] = target: T1, cathepsin K (Homo sapiens, UniProt P43235); assay: Cathepsin K enzyme inhibition in vitro (kinetic fluorescence assay); conditions: Ki(cathepsin K)/Ki(calpain) ratio
T1 construct: purchased Calbiochem 342001; host or cells: E. coli
T1 sequence (P43235 115-329): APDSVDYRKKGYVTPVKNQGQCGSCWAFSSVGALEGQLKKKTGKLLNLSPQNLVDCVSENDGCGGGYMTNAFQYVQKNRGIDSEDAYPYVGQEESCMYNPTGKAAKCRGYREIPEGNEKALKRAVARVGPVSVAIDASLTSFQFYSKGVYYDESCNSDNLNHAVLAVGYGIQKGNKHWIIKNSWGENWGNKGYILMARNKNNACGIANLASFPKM
Procedure: Testing for blockade of the corresponding enzymic activities was carried out by means of kinetic fluorescence assays (excitation 390 nm, emission 460 nm).
Apparent Ki values were calculated from the experimentally determined IC50 values by the Cheng-Prussoff relation assuming a reversible competitive enzyme inhibition. The Km values of the substrates used under the assay conditions indicated above were: 90 μM (Z-Phe-Arg-AMC, cathepsin B), 10 μM (Z-Gly-Pro-Arg-AMC, cathepsin K), 2 μM (Z-Phe-Arg-AMC, cathepsin L), and 30 μM (Z-Val-Val-Arg-AMC, cathepsin S).
The indicated Ki values are averages of the inhibition constants calculated on the basis of 2 to 4 independent dose-effect plots.
• 1. Calpain I: • 20 nM calpain-I—isolated from human erythrocytes (Calbiochem #208713), 100 μM Suc-Leu-Tyr-AMC (Bachem #1-1355) as substrate in buffer with 62 mM imidazole, 0.3 mM CaCl2, 0.10% CHAPS, 0.05% BSA, 1 mM DTT at pH 7.3 and room temperature. • 2. Cathepsin B: • 0.25 nM cathepsin B—isolated from human liver (Calbiochem #219362), 100 μM Z-Phe-Arg-AMC (Bachem #1-1160) as substrate 50 mM MES, 2 mM EDTA, 0.05% Brij 35, 2.5 mM L-cysteine, pH 6.0, room temperature. • 3. Cathepsin K: • 3 nM cathepsin K—activated from recombinant human procathepsin K from E. coli (Calbiochem #342001), 10 μM Z-Gly-Pro-Arg-AMC (Biomol #P-142) as substrate in 50 mM MES, 2 mM EDTA, 0.05% Brij 35, 2.5 mM L-cysteine, pH 6.0, room temperature. • 4. Cathepsin L: • 1 nM cathepsin L—isolated from human liver (Calbiochem #219402), 2 μM Z-Phe-Arg-AMC (Bachem #1-1160) as substrate in 50 mM MES, 2 mM EDTA, 0.05% Brij 35, 2.5 mM L-cysteine, pH 6.0, room temperature. • 5. Cathepsin S: • 0.5 nM recombinant human cathepsin S from E. coli (Calbiochem #219343), 20 μM Z-Val-Val-Arg-AMC (Bachem #1-1540) as substrate in 50 mM MES, 2 mM EDTA, 0.05% Brij 35, 2.5 mM L-cysteine, pH 6.0, room temperature.

[2] = target: T2, cathepsin S (Homo sapiens, UniProt P25774); assay: Cathepsin S enzyme inhibition in vitro (kinetic fluorescence assay); conditions: Ki(cathepsin S)/Ki(calpain) ratio
T2 construct: purchased Calbiochem 219343; host or cells: E. coli
In short: (§1)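 Kinetic fluorescence (ex 390/em 460 nm), room temperature: calpain-I (human erythrocyte, 20 nM) with 100 µM Suc-Leu-Tyr-AMC, imidazole/CaCl2 pH 7.3; cathepsin B (liver, 0.25 nM), 100 µM Z-Phe-Arg-AMC; L (liver, 1 nM), 2 µM Z-Phe-Arg-AMC; S (recombinant, 0.5 nM), 20 µM Z-Val-Val-Arg-AMC; cathepsins in MES/EDTA/cysteine pH 6.0. Apparent Ki via Cheng-Prusoff, 2–4 curves averaged.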

[3] = target: T3, cathepsin L (Homo sapiens, UniProt P07711); assay: Cathepsin L enzyme inhibition in vitro (kinetic fluorescence assay); conditions: Ki(cathepsin L)/Ki(calpain) ratio
T3 construct: cathepsin L—isolated from human liver; purchased Calbiochem 219402; host or cells: human liver (tissue isolate)
In short: as §1

[4] = target: T4, cathepsin B (Homo sapiens, UniProt P07858); assay: Cathepsin B enzyme inhibition in vitro (kinetic fluorescence assay); conditions: Ki(cathepsin B)/Ki(calpain) ratio
T4 construct: cathepsin B—isolated from human liver; purchased Calbiochem 219362; host or cells: human liver (tissue isolate)
In short: as §1

T2 sequence (P25774 115-331): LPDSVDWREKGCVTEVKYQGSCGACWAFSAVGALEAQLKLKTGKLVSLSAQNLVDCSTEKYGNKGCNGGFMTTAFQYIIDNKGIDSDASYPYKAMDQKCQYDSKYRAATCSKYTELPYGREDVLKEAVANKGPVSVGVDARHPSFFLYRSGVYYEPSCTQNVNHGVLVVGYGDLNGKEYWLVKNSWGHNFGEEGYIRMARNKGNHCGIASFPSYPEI
T3 sequence (P07711 114-333): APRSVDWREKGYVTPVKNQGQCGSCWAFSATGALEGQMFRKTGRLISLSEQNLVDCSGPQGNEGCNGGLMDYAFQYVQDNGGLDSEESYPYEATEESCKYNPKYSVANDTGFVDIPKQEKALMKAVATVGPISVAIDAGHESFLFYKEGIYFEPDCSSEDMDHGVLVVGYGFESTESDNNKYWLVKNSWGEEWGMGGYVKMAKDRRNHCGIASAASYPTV

| SMILES | Sel cat. K [1] | Sel cat. S [2] | Sel cat. L [3] | Sel cat. B [4] |
| --- | --- | --- | --- | --- |
| COc1ccc(-c2ccn(-c3ncccc3C(=O)NC(Cc3ccccc3)C(=O)C(N)=O)n2)cc1 (stereo not drawn) [Example 48, N-(3-Amino-1-benzyl-2,3-dioxopropyl)-2-[3-(4-methoxyphenyl)-1H-pyrazol-1-yl]nicotinamide] | + (+ means 10≦Ki(cathepsin K)/Ki(calpain)<30) | ++ (++ means a Ki(cathepsin S)/Ki(calpain) ratio of ≧100) | ++ (++ means a Ki(cathepsin L)/Ki(calpain) ratio of ≧50) | + (+ means 10≦Ki(cathepsin B)/Ki(calpain)<30) |
| NC(=O)C(=O)C(Cc1ccccc1)NC(=O)c1cccnc1-n1cc(Cl)c(-c2ccc(F)cc2)n1 (stereo not drawn) [Example 184, N-[3-Amino-2,3-dioxo-1-(phenylmethyl)propyl]-2-[4-chloro-3-(4-fluorophenyl)-1H-pyrazol-1-yl]pyridine-3-carboxamide] | + (+ means 10≦Ki(cathepsin K)/Ki(calpain)<30) | ++ (++ means a Ki(cathepsin S)/Ki(calpain) ratio of ≧100) | ++ (++ means a Ki(cathepsin L)/Ki(calpain) ratio of ≧50) | + (+ means 10≦Ki(cathepsin B)/Ki(calpain)<30) |
| NC(=O)C(=O)C(Cc1ccc(OCc2ccccc2)cc1)NC(=O)c1cccnc1-n1ccc(-c2ccccc2)n1 (stereo not drawn) [Example 127, N-[3-Amino-2,3-dioxo-1-({4-[(phenylmethyl)oxy]phenyl}methyl)propyl]-2-(3-phenyl-1H-pyrazol-1-yl)pyridine-3-carboxamide] | ++ (++ means a Ki(cathepsin K)/Ki(calpain) ratio of ≧30) | ++ (++ means a Ki(cathepsin S)/Ki(calpain) ratio of ≧100) | ++ (++ means a Ki(cathepsin L)/Ki(calpain) ratio of ≧50) | ++ (++ means a Ki(cathepsin B)/Ki(calpain) ratio of ≧30) |
| COc1cc(Cl)ccc1-c1ccn(-c2ncccc2C(=O)NC(Cc2ccccc2)C(=O)C(N)=O)n1 (stereo not drawn) [Example 139, N-[3-Amino-2,3-dioxo-1-(phenylmethyl)propyl]-2-{3-[4-chloro-2-(methyloxy)phenyl]-1H-pyrazol-1-yl}pyridine-3-carboxamide] | ++ (++ means a Ki(cathepsin K)/Ki(calpain) ratio of ≧30) | ++ (++ means a Ki(cathepsin S)/Ki(calpain) ratio of ≧100) | ++ (++ means a Ki(cathepsin L)/Ki(calpain) ratio of ≧50) | + (+ means 10≦Ki(cathepsin B)/Ki(calpain)<30) |
| NC(=O)C(=O)C(Cc1ccccc1)NC(=O)c1cccnc1-n1ccc(-c2ccccc2Cl)n1 (stereo not drawn) [Example 54, N-(3-Amino-1-benzyl-2,3-dioxopropyl)-2-[3-(2-chlorophenyl)-1H-pyrazol-1-yl]nicotinamide] | ++ (++ means a Ki(cathepsin K)/Ki(calpain) ratio of ≧30) | ++ (++ means a Ki(cathepsin S)/Ki(calpain) ratio of ≧100) | ++ (++ means a Ki(cathepsin L)/Ki(calpain) ratio of ≧50) | ++ (++ means a Ki(cathepsin B)/Ki(calpain) ratio of ≧30) |
| NC(=O)C(=O)C(Cc1ccccc1)NC(=O)c1cccnc1-n1ccc(-c2ccc(N3CCOCC3)cc2F)n1 (stereo not drawn) [Example 102, N-[3-Amino-2,3-dioxo-1-(phenylmethyl)propyl]-2-[3-(2-fluoro-4-morpholin-4-ylphenyl)-1H-pyrazol-1-yl]pyridine-3-carboxamide] | ++ (++ means a Ki(cathepsin K)/Ki(calpain) ratio of ≧30) | ++ (++ means a Ki(cathepsin S)/Ki(calpain) ratio of ≧100) | ++ (++ means a Ki(cathepsin L)/Ki(calpain) ratio of ≧50) | + (+ means 10≦Ki(cathepsin B)/Ki(calpain)<30) |
| COc1ccc(F)cc1-c1ccn(-c2ncccc2C(=O)NC(Cc2ccccc2)C(=O)C(N)=O)n1 (stereo not drawn) [Example 130, N-[3-Amino-2,3-dioxo-1-(phenylmethyl)propyl]-2-{3-[5-fluoro-2-(methyloxy)phenyl]-1H-pyrazol-1-yl}pyridine-3-carboxamide] | ++ (++ means a Ki(cathepsin K)/Ki(calpain) ratio of ≧30) | ++ (++ means a Ki(cathepsin S)/Ki(calpain) ratio of ≧100) | ++ (++ means a Ki(cathepsin L)/Ki(calpain) ratio of ≧50) | ++ (++ means a Ki(cathepsin B)/Ki(calpain) ratio of ≧30) |
| NC(=O)C(=O)C(Cc1ccccc1)NC(=O)c1cccnc1-n1ccc(-c2ccccn2)n1 (stereo not drawn) [Example 35, N-(3-Amino-1-benzyl-2,3-dioxopropyl)-2-(3-pyridin-2-yl-1H-pyrazol-1-yl)nicotinamide] | + (+ means 10≦Ki(cathepsin K)/Ki(calpain)<30) | ++ (++ means a Ki(cathepsin S)/Ki(calpain) ratio of ≧100) | ++ (++ means a Ki(cathepsin L)/Ki(calpain) ratio of ≧50) | + (+ means 10≦Ki(cathepsin B)/Ki(calpain)<30) |
| COc1ccc(CC(NC(=O)c2cccnc2-n2ccc(-c3ccccc3F)n2)C(=O)C(N)=O)cc1 (stereo not drawn) [Example 92, N-(3-Amino-1-{[4-(methyloxy)phenyl]methyl}-2,3-dioxopropyl)-2-[3-(2-fluorophenyl)-1H-pyrazol-1-yl]pyridine-3-carboxamide] | + (+ means 10≦Ki(cathepsin K)/Ki(calpain)<30) | ++ (++ means a Ki(cathepsin S)/Ki(calpain) ratio of ≧100) | ++ (++ means a Ki(cathepsin L)/Ki(calpain) ratio of ≧50) | ++ (++ means a Ki(cathepsin B)/Ki(calpain) ratio of ≧30) |
| NC(=O)C(=O)C(Cc1ccccc1)NC(=O)c1cccnc1-n1cc2c(n1)-c1cc(Cl)ccc1OC2 (stereo not drawn) [Example 140, N-[3-Amino-2,3-dioxo-1-(phenylmethyl)propyl]-2-(8-chlorochromeno[4,3-c]pyrazol-2(4H)-yl)pyridine-3-carboxamide] | ++ (++ means a Ki(cathepsin K)/Ki(calpain) ratio of ≧30) | ++ (++ means a Ki(cathepsin S)/Ki(calpain) ratio of ≧100) | ++ (++ means a Ki(cathepsin L)/Ki(calpain) ratio of ≧50) | + (+ means 10≦Ki(cathepsin B)/Ki(calpain)<30) |
| NC(=O)C(=O)C(Cc1ccccc1)NC(=O)c1cccnc1-n1ccc(-c2ccc(N3CCCC3)cc2)n1 (stereo not drawn) [Example 69, N-(3-Amino-1-benzyl-2,3-dioxopropyl)-2-[3-(4-pyrrolidin-1-ylphenyl)-1H-pyrazol-1-yl]nicotinamide] | + (+ means 10≦Ki(cathepsin K)/Ki(calpain)<30) | ++ (++ means a Ki(cathepsin S)/Ki(calpain) ratio of ≧100) | ++ (++ means a Ki(cathepsin L)/Ki(calpain) ratio of ≧50) | + (+ means 10≦Ki(cathepsin B)/Ki(calpain)<30) |
| NC(=O)C(=O)C(Cc1ccc(F)cc1)NC(=O)c1cccnc1-n1ccc(-c2ccccc2)n1 (stereo not drawn) [Example 123, N-{3-Amino-1-[(4-fluorophenyl)methyl]-2,3-dioxopropyl}-2-(3-phenyl-1H-pyrazol-1-yl)pyridine-3-carboxamide] | ++ (++ means a Ki(cathepsin K)/Ki(calpain) ratio of ≧30) | ++ (++ means a Ki(cathepsin S)/Ki(calpain) ratio of ≧100) | ++ (++ means a Ki(cathepsin L)/Ki(calpain) ratio of ≧50) | ++ (++ means a Ki(cathepsin B)/Ki(calpain) ratio of ≧30) |
